According to patent publication US8802661B2, “C-28 amides of modified C-3 betulinic acid derivatives as HIV maturation inhibitors” (priority 2010, dated 2014):
Counter-ions that a name gives are not always drawn.

tested on: recombinant NL4-3 virus (Renilla luciferase in nef, Gag P373S); experiment: HIV Cell Culture Assay (luciferase reporter virus in MT-2 cells); format: cell-based; conditions: NL43
Protocol: MT-2 cells and 293T cells were obtained from the NIH AIDS Research and Reference Reagent Program. MT-2 cells were propagated in RPMI 1640 media supplemented with 10% heat inactivated fetal bovine serum, […]. The 293T cells were propagated in DMEM media supplemented with 10% heat inactivated fetal bovine serum (FBS), 100 units/ml penicillin G and 100 μg/ml streptomycin. The proviral DNA clone of NL4-3 was obtained from the NIH AIDS Research and Reference Reagent Program. A recombinant NL4-3 virus, in which a section of the nef gene from NL4-3 was replaced with the Renilla luciferase gene, was used as a reference virus. In addition, residue Gag P373 was converted to P373S. Briefly, the recombinant virus was prepared by transfection of the altered proviral clone of NL4-3. Transfections were performed in 293T cells using LipofectAMINE PLUS from Invitrogen (Carlsbad, Calif.), according to manufacturer's instruction. The virus was titered in MT-2 cells using luciferase enzyme activity as a marker. Luciferase was quantitated using the Dual Luciferase kit from Promega (Madison, Wis.), with modifications to the manufacturer's protocol. The diluted Passive Lysis solution was pre-mixed with the re-suspended Luciferase Assay Reagent and the re-suspended Stop & Glo Substrate (2:1:1 ratio). Fifty (50) μL of the mixture was added to each aspirated well on assay plates and luciferase activity was measured immediately on a Wallac TriLux (Perkin-Elmer). Antiviral activities of inhibitors toward the recombinant virus were quantified by measuring luciferase activity in cells infected for 4-5 days with NLRluc recombinants in the presence serial dilutions of the inhibitor. Table 1 is the key for the data in Table 2.

Row | Compound | EC50 [nM]
1 | C=C(C)[C@@H]1CC[C@]2(C(=O)NCCN(C(C)C)C(C)C)CC[C@]3(C)[C@H](CC[C@@H]4[C@@]5(C)CC=C(c6ccc(C(=O)O)cc6)C(C)(C)[C@@H]5CC[C@]43C)[C@@H]12 [Example 67, 4-((1R,3aS,5aR,5bR,7aR,11aS,11bR,13aR,13bR)-3a-(2-(diisopropylamino)ethylcarbamoyl)-5a,5b,8,8,11a-pentamethyl-1-(prop-1-en-2-yl)-2,3,3a,4,5,5a,5b,6,7,7a,8,11,11a,11b,12,13,13a,13b-octadecahydro-1H-cyclopenta[a]chrysen-9-yl)benzoic acid] | 3.8

same assay, conditions: NL43, read-out: EC50 Group

Row | Compound | EC50 [nM]
2 | C=C(C)[C@@H]1CC[C@]2(C(=O)NCCCn3ccnc3)CC[C@]3(C)[C@H](CC[C@@H]4[C@@]5(C)CC=C(c6ccc(C(=O)O)cc6)C(C)(C)[C@@H]5CC[C@]43C)[C@@H]12 [Example 86, 4-((1R,3aS,5aR,5bR,7aR,11aS,11bR,13aR,13bR)-3a-(3-(1H-imidazol-1-yl)propylcarbamoyl)-5a,5b,8,8,11a-pentamethyl-1-(prop-1-en-2-yl)-2,3,3a,4,5,5a,5b,6,7,7a,8,11,11a,11b,12,13,13a,13b-octadecahydro-1H-cyclopenta[a]chrysen-9-yl)benzoic acid] | < 100
3 | C=C(C)[C@@H]1CC[C@]2(C(=O)NCCN(CCC)CCC(=O)O)CC[C@]3(C)[C@H](CC[C@@H]4[C@@]5(C)CC=C(c6ccc(C(=O)O)cc6)C(C)(C)[C@@H]5CC[C@]43C)[C@@H]12 [Example 93, 4-((1R,3aS,5aR,5bR,7aR,11aS,11bR,13aR,13bR)-3a-(2-((2-carboxyethyl)(propyl)amino)ethylcarbamoyl)-5a,5b,8,8,11a-pentamethyl-1-(prop-1-en-2-yl)-2,3,3a,4,5,5a,5b,6,7,7a,8,11,11a,11b,12,13,13a,13b-octadecahydro-1H-cyclopenta[a]chrysen-9-yl)benzoic acid] | < 100
4 | C=C(C)[C@@H]1CC[C@]2(C(=O)NCc3ccccn3)CC[C@]3(C)[C@H](CC[C@@H]4[C@@]5(C)CC=C(c6ccc(C(=O)O)cc6)C(C)(C)[C@@H]5CC[C@]43C)[C@@H]12 [Example 2, 4-((1R,3aS,5aR,5bR,7aR,11aS,11bR,13aR,13bR)-5a,5b,8,8,11a-pentamethyl-1-(prop-1-en-2-yl)-3a-(pyridin-2-ylmethylcarbamoyl)-2,3,3a,4,5,5a,5b,6,7,7a,8,11,11a,11b,12,13,13a,13b-octadecahydro-1H-cyclopenta[a]chrysen-9-yl)benzoic acid] | < 100
5 | C=C(C)[C@@H]1CC[C@]2(C(=O)NCCNCCO)CC[C@]3(C)[C@H](CC[C@@H]4[C@@]5(C)CC=C(c6ccc(C(=O)O)cc6)C(C)(C)[C@@H]5CC[C@]43C)[C@@H]12 [Example 74, 4-((1R,3aS,5aR,5bR,7aR,11aS,11bR,13aR,13bR)-3a-(2-(2-hydroxyethylamino)ethylcarbamoyl)-5a,5b,8,8,11a-pentamethyl-1-(prop-1-en-2-yl)-2,3,3a,4,5,5a,5b,6,7,7a,8,11,11a,11b,12,13,13a,13b-octadecahydro-1H-cyclopenta[a]chrysen-9-yl)benzoic acid] | < 100
6 | C=C(C)[C@@H]1CC[C@]2(C(=O)NCCNCCS(=O)(=O)O)CC[C@]3(C)[C@H](CC[C@@H]4[C@@]5(C)CC=C(c6ccc(C(=O)O)cc6)C(C)(C)[C@@H]5CC[C@]43C)[C@@H]12 [Example 92, 4-((1R,3aS,5aR,5bR,7aR,11aS,11bR,13aR,13bR)-5a,5b,8,8,11a-pentamethyl-1-(prop-1-en-2-yl)-3a-(2-(2-sulfoethylamino)ethylcarbamoyl)-2,3,3a,4,5,5a,5b,6,7,7a,8,11,11a,11b,12,13,13a,13b-octadecahydro-1H-cyclopenta[a]chrysen-9-yl)benzoic acid] | < 100
7 | C=C(C)[C@@H]1CC[C@]2(C(=O)NCCCN3CCCC3=O)CC[C@]3(C)[C@H](CC[C@@H]4[C@@]5(C)CC=C(c6ccc(C(=O)O)cc6)C(C)(C)[C@@H]5CC[C@]43C)[C@@H]12 [Example 87, 4-((1R,3aS,5aR,5bR,7aR,11aS,11bR,13aR,13bR)-5a,5b,8,8,11a-pentamethyl-3a-(3-(2-oxopyrrolidin-1-yl)propylcarbamoyl)-1-(prop-1-en-2-yl)-2,3,3a,4,5,5a,5b,6,7,7a,8,11,11a,11b,12,13,13a,13b-octadecahydro-1H-cyclopenta[a]chrysen-9-yl)benzoic acid] | < 100
8 | C=C(C)[C@@H]1CC[C@]2(C(=O)NCCN(CCC)CC(=O)O)CC[C@]3(C)[C@H](CC[C@@H]4[C@@]5(C)CC=C(c6ccc(C(=O)O)cc6)C(C)(C)[C@@H]5CC[C@]43C)[C@@H]12 [Example 94, 4-((1R,3aS,5aR,5bR,7aR,11aS,11bR,13aR,13bR)-3a-(2-((carboxymethyl)(propyl)amino)ethylcarbamoyl)-5a,5b,8,8,11a-pentamethyl-1-(prop-1-en-2-yl)-2,3,3a,4,5,5a,5b,6,7,7a,8,11,11a,11b,12,13,13a,13b-octadecahydro-1H-cyclopenta[a]chrysen-9-yl)benzoic acid] | < 100
9 | C=C(C)[C@@H]1CC[C@]2(C(=O)NS(=O)(=O)C3CC3)CC[C@]3(C)[C@H](CC[C@@H]4[C@@]5(C)CC=C(c6ccc(C(=O)O)cc6)C(C)(C)[C@@H]5CC[C@]43C)[C@@H]12 [Example 6, 4-((1R,3aS,5aR,5bR,7aR,11aS,11bR,13aR,13bR)-3a-(cyclopropylsulfonylcarbamoyl)-5a,5b,8,8,11a-pentamethyl-1-(prop-1-en-2-yl)-2,3,3a,4,5,5a,5b,6,7,7a,8,11,11a,11b,12,13,13a,13b-octadecahydro-1H-cyclopenta[a]chrysen-9-yl)benzoic acid] | < 100
10 | C=C(C)[C@@H]1CC[C@]2(C(=O)NCCCN3CCOCC3)CC[C@]3(C)[C@H](CC[C@@H]4[C@@]5(C)CC=C(c6ccc(C(=O)O)cc6)C(C)(C)[C@@H]5CC[C@]43C)[C@@H]12 [Example 32, 4-((1R,3aS,5aR,5bR,7aR,11aS,11bR,13aR,13bR)-5a,5b,8,8,11a-pentamethyl-3a-(3-morpholinopropylcarbamoyl)-1-(prop-1-en-2-yl)-2,3,3a,4,5,5a,5b,6,7,7a,8,11,11a,11b,12,13,13a,13b-octadecahydro-1H-cyclopenta[a]chrysen-9-yl)benzoic acid] | < 100
11 | C=C(C)[C@@H]1CC[C@]2(C(=O)N3CCN(CCO)CC3)CC[C@]3(C)[C@H](CC[C@@H]4[C@@]5(C)CC=C(c6ccc(C(=O)O)cc6)C(C)(C)[C@@H]5CC[C@]43C)[C@@H]12 [Example 13, 4-((1R,3aS,5aR,5bR,7aR,11aS,11bR,13aR,13bR)-3a-(4-(2-hydroxyethyl)piperazine-1-carbonyl)-5a,5b,8,8,11a-pentamethyl-1-(prop-1-en-2-yl)-2,3,3a,4,5,5a,5b,6,7,7a,8,11,11a,11b,12,13,13a,13b-octadecahydro-1H-cyclopenta[a]chrysen-9-yl)benzoic acid, TFA] | < 100
12 | C=C(C)[C@@H]1CC[C@]2(C(=O)NCCN(CCO)CCO)CC[C@]3(C)[C@H](CC[C@@H]4[C@@]5(C)CC=C(c6ccc(C(=O)O)cc6)C(C)(C)[C@@H]5CC[C@]43C)[C@@H]12 [Example 76, 4-((1R,3aS,5aR,5bR,7aR,11aS,11bR,13aR,13bR)-3a-(2-(bis(2-hydroxyethyl)amino)ethylcarbamoyl)-5a,5b,8,8,11a-pentamethyl-1-(prop-1-en-2-yl)-2,3,3a,4,5,5a,5b,6,7,7a,8,11,11a,11b,12,13,13a,13b-octadecahydro-1H-cyclopenta[a]chrysen-9-yl)benzoic acid] | < 100
13 | C=C(C)[C@@H]1CC[C@]2(C(=O)NCCCN3CCS(=O)(=O)CC3)CC[C@]3(C)[C@H](CC[C@@H]4[C@@]5(C)CC=C(c6cc(F)c(C(=O)O)c(F)c6)C(C)(C)[C@@H]5CC[C@]43C)[C@@H]12 [Example 123, 4-((1R,3aS,5aR,5bR,7aR,11aS,11bR,13aR,13bR)-3a-((3-(1,1-dioxido-4-thiomorpholinyl)propyl)carbamoyl)-1-isopropenyl-5a,5b,8,8,11a-pentamethyl-2,3,3a,4,5,5a,5b,6,7,7a,8,11,11a,11b,12,13,13a,13b-octadecahydro-1H-cyclopenta[a]chrysen-9-yl)-2,6-difluorobenzoic acid] | < 100
14 | C=C(C)[C@@H]1CC[C@]2(C(=O)NCCN3CCN(C)CC3)CC[C@]3(C)[C@H](CC[C@@H]4[C@@]5(C)CC=C(c6ccc(C(=O)O)cc6)C(C)(C)[C@@H]5CC[C@]43C)[C@@H]12 [Example 36, 4-((1R,3aS,5aR,5bR,7aR,11aS,11bR,13aR,13bR)-5a,5b,8,8,11a-pentamethyl-3a-(2-(4-methylpiperazin-1-yl)ethylcarbamoyl)-1-(prop-1-en-2-yl)-2,3,3a,4,5,5a,5b,6,7,7a,8,11,11a,11b,12,13,13a,13b-octadecahydro-1H-cyclopenta[a]chrysen-9-yl)benzoic acid] | < 100
